From ChEMBL document CHEMBL4351021, “Design, synthesis and biological evaluation of novel FFA1/GPR40 agonists: New breakthrough in an old scaffold” (Eur J Med Chem, 2019)
Values belong to the molecule of their own block, whether it stands above or below them. Active and inactive are the calls of the source. The rule behind the calls is not given here.

What was measured:
[1] = target: T1, Free fatty acid receptor 1 (Homo sapiens, UniProt O14842); assay: Agonist activity at FFA1 receptor (unknown origin) stably expressed in CHO cells assessed as increase in calcium flux by Fluo4-AM based FLIPR assay; type: functional, cell-based
T1 sequence (O14842 whole entry): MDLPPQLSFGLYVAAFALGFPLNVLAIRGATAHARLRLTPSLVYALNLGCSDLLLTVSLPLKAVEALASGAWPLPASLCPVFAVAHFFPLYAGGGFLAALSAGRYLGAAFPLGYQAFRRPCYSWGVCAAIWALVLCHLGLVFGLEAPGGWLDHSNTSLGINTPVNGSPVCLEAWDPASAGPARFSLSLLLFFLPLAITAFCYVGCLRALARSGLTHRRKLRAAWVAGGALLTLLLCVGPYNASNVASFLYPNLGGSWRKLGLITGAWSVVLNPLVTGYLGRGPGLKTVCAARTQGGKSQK

[2] = Lipophilicity, logD of compound in 1-octanol and PBS mixture in pH 7.4 at 100 uM incubated for 24 under shaking condition by HPLC analysis; type: physicochemical; settings: 1-octanol/PBS
Hepatocyte [3] = assay: Hepatotoxicity in sandwich-cultured Sprague-Dawley rat hepatocytes assessed as decrease in accumulation of d8-TCA at 25 uM incubated for 15 mins followed by d8-TCA addition and measured after 15 mins by LC-MS/MS analysis; type: toxicity, cell-based; settings: 0.25 h
Hepatocyte [4] = assay: Hepatotoxicity in sandwich-cultured Sprague-Dawley rat hepatocytes assessed as inhibition of hepatobiliary transport by measuring biliary excretion index at 25 uM incubated for 15 mins followed by d8-TCA addition and measured after 15 mins by LC-MS/MS analysis; type: toxicity, cell-based; settings: 0.25 h
Rattus norvegicus [5] = assay: Antidiabetic activity in Sprague-Dawley rat assessed as change in blood glucose level in fasting state at 10 mg/kg, po pretreated for 1 hr followed by glucose challenge and measured up to 120 mins by OGTT; type: functional, organism-based
[6] = target: T1, Free fatty acid receptor 1; assay: Potency index, ratio of EC50 for 2-(4-(([…]3-yl)methoxy)-2-fluorophenoxy)acetic acid to EC50 for test compound for Agonist activity at FFA1 receptor (unknown origin) stably expressed in CHO cells assessed as increase in calcium flux by Fluo4-AM based FLIPR assay; type: functional, cell-based
Mus musculus [7] = assay: Antidiabetic activity in ICR mouse assessed as reduction in blood glucose level at 20 mg/kg, po pretreated for 30 mins followed by glucose challenge and measured up to 120 mins by OGTT; type: functional, organism-based
[8] = Half life in Sprague-Dawley rat at 10 mg/kg, po measured for […] by LC-MS/MS analysis; type: ADME, organism-based; settings: in vivo
Mus musculus [9] = assay: Antidiabetic activity in ICR mouse assessed as flattening of glucose curve after 1 hr at 20 mg/kg, po pretreated for 30 mins followed by glucose challenge and measured up to 120 mins by OGTT; type: functional, organism-based
[10] = Clearance in Sprague-Dawley rat at 10 mg/kg, po measured for […] by LC-MS/MS analysis; type: ADME, organism-based; settings: in vivo
[11] = AUC (0 to 24 hrs) in Sprague-Dawley rat at 10 mg/kg, po measured for […] by LC-MS/MS analysis; type: ADME, organism-based; parameters: time < 24 hr, dose 10 mg/kg, route oral; settings: in vivo; for AUC: 24 h
[12] = Cmax in Sprague-Dawley rat at 10 mg/kg, po measured for […] by LC-MS/MS analysis; type: ADME, organism-based; parameters: dose 10 mg/kg, route oral; settings: in vivo
Mus musculus [13] = assay: Antidiabetic activity in HFD fed/STZ-treated C57BL/6 mouse assessed as decrease in blood glucose at 20 mg/kg, po pretreated for 30 mins followed by glucose challenge and measured after up to 120 mins by OGTT; type: functional, organism-based
Mus musculus [14] = assay: Antidiabetic activity in ICR mouse assessed as glucose-stimulated change in GLP-1 secretion at 20 mg/kg, po pretreated for 0.5 hrs followed by glucose challenge and measured after 5 mins by ELISA; type: functional, organism-based
Mus musculus [15] = assay: Antidiabetic activity in ICR mouse assessed as increase in GLP-1 secretion at 20 mg/kg, po pretreated with DPP4 inhibitor linagliptin for 1 hr followed by compound addition and measured after 4 hrs by ELISA; type: functional, organism-based
[16] = Acute toxicity in ICR mouse assessed as change in liver morphology at 5 to 500 mg/kg, po daily for 7 days by H and E staining based histopathological analysis; type: organism-based; settings: in vivo, 168 h
[17] = Acute toxicity in ICR mouse assessed as change in ALT level up to 500 mg/kg, po daily for 7 days; type: organism-based; settings: in vivo, 168 h
Rattus norvegicus [18] = assay: Antidiabetic activity in Sprague-Dawley rat assessed as suppression in blood glucose excursion at 10 mg/kg, po pretreated for 1 hr followed by glucose challenge and measured up to 120 mins by OGTT; type: functional, organism-based
Rattus norvegicus [19] = assay: Antidiabetic activity in Sprague-Dawley rat assessed as change in blood glucose level at 10 mg/kg, po pretreated for 1 hr followed by glucose challenge by OGTT; type: functional, organism-based; settings: TDE = time-dependent effect
[20] = Acute toxicity in ICR mouse assessed as change in AST level up to 500 mg/kg, po daily for 7 days; type: organism-based; settings: in vivo, 168 h
Rattus norvegicus [21] = assay: Antidiabetic activity in Sprague-Dawley rat assessed as increase in plasma insulin level at 10 mg/kg, po administrated and measured up to 120 mins by ELISA; type: functional, organism-based
Rattus norvegicus [22] = assay: Antidiabetic activity in Sprague-Dawley rat assessed as change plasma in insulin level at 10 mg/kg, po pretreated for 1 hr followed by glucose challenge by ELISA; type: functional, organism-based; settings: TDE = time-dependent effect
[23] = Acute toxicity in ICR mouse assessed as induction of side effects at 5 to 500 mg/kg, po daily for 7 days; type: organism-based; settings: in vivo, 168 h
Rattus norvegicus [24] = assay: Antidiabetic activity in Sprague-Dawley rat assessed as increase in plasma insulin level at 10 mg/kg, po pretreated for 1 hr followed by glucose challenge and measured at 0 mins by ELISA; type: functional, organism-based

Structure (SMILES): O=C(O)COc1ccc(NCc2cccc(-c3ccccc3)c2)cc1F
- EC50 [1]: 58.5 nM
- logD at 100 µM [2]: 2.25

Structure (SMILES): N#Cc1ccccc1-c1cccc(CNc2ccc(OCC(=O)O)c(F)c2)c1
- EC50 [1]: 729 nM

Structure (SMILES): Cc1cc(OCCCS(C)(=O)=O)cc(C)c1-c1cccc(CNc2ccc(OCC(=O)O)c(F)c2)c1
- EC50 [1]: 59.8 nM
- logD at 100 µM [2]: 1.73

Structure (SMILES): CC(C)c1ccccc1-c1cccc(CNc2ccc(OCC(=O)O)c(F)c2)c1
- EC50 [1]: 86.2 nM
- logD at 100 µM [2]: 3.45

Structure (SMILES): COc1ccc(Cl)cc1C(=O)NCCc1ccc(S(=O)(=O)NC(=O)NC2CCCCC2)cc1
- Activity (Rattus norvegicus [5]): Active

Structure (SMILES): CCOc1cc(C)c(-c2cccc(CNc3ccc(OCC(=O)O)c(F)c3)c2)c(C)c1
- Ratio EC50 [6]: 3
- EC50 [1]: 24.2 nM
- logD at 100 µM [2]: 3.04
- Activity (Mus musculus [7]): Active

Structure (SMILES): Cc1ccc(-c2cccc(CNc3ccc(OCC(=O)O)c(F)c3)c2)c(Cl)c1
- EC50 [1]: 22.5 nM
- logD at 100 µM [2]: 3.24

Structure (SMILES): O=C(O)COc1ccc(NCc2ccc(Cl)c(-c3ccccc3)c2)cc1F
- EC50 [1]: 51.7 nM
- logD at 100 µM [2]: 2.74

Structure (SMILES): Cc1ccccc1-c1cccc(CNc2ccc(OCC(=O)O)c(F)c2)c1
- Activity (Hepatocyte [3]): Toxic
- half-life [8]: 5.42 h
- Activity (Mus musculus [9]): Active
- logD at 100 µM [2]: 2.41
- Activity (Mus musculus [7]): Active
- CL/F ([10]; Sprague-Dawley): 0.109 mL/min/kg
- AUC(0-t) at 24 h ([11]; Sprague-Dawley): 2870 µg·h/mL
- Cmax [12]: 187 µg/mL
- Activity_index (Hepatocyte [4]): 12.3%

Structure (SMILES): CCCOc1cc(C)c(-c2cccc(CNc3ccc(OCC(=O)O)c(F)c3)c2)c(C)c1
- EC50 [1]: 38.7 nM
- logD at 100 µM [2]: 3.59

Structure (SMILES): COCCOc1ccc(-c2cccc(CNc3ccc(OCC(=O)O)c(F)c3)c2)c(C)c1
- EC50 [1]: 41.9 nM
- logD at 100 µM [2]: 2.23

Structure (SMILES): CO/N=C(\COc1ccc(CNc2ccc(OCC(=O)O)c(F)c2)cc1)c1ccccc1
- EC50 [1]: 398 nM

Structure (SMILES): COCCOc1cc(C)c(-c2cccc(CNc3ccc(OCC(=O)O)c(F)c3)c2)c(C)c1
- EC50 [1]: 51.6 nM
- logD at 100 µM [2]: 2.47

Structure (SMILES): O=C(O)COc1ccc(NCc2cccc(-c3ccccc3C(F)(F)F)c2)cc1F
- Activity (Rattus norvegicus [5]): inactive
- Activity (Hepatocyte [3]): Toxic
- Activity [16]: Non-Toxic
- Activity [17]: Non-Toxic
- Activity (Rattus norvegicus [18]): Active
- Activity (Rattus norvegicus [19]): Tde
- EC50 [1]: 15.7 nM
- Activity [20]: Non-Toxic
- Activity (Rattus norvegicus [21]): inactive
- half-life [8]: 4.84 h
- Activity (Mus musculus [13]): Active
- Activity (Mus musculus [14]): inactive
- logD at 100 µM [2]: 3.13
- Activity (Rattus norvegicus [22]): Tde
- Activity (Mus musculus [7]): Active
- Activity [23]: Non-Toxic
- CL [10]: 0.124 mL/min/kg
- Activity (Rattus norvegicus [24]): Active
- AUC [11]: 3909.33 µg·h/mL
- Activity (Mus musculus [15]): Active
- Cmax [12]: 322 µg/mL
- Activity_index (Hepatocyte [4]): 29.6%

The next lines start with results.

- EC50 [1]: 197 nM
Structure (SMILES): CCOc1cc(C)c(-c2cccc(CNc3ccc(OCC(=O)O)cc3)c2)c(C)c1

- EC50 [1]: 36.1 nM
- logD at 100 µM [2]: 1.65
Structure (SMILES): Cc1cc(OCCO)ccc1-c1cccc(CNc2ccc(OCC(=O)O)c(F)c2)c1
- Activity (Hepatocyte [3]): Toxic
- Activity_index (Hepatocyte [4]): 14.3%

- EC50 [1]: 69.3 nM
- logD at 100 µM [2]: 3.61
Structure (SMILES): CCOc1cc(C)c(-c2cccc(COc3ccc(OCC(=O)O)c(F)c3)c2)c(C)c1

- EC50 [1]: 45.6 nM
- logD at 100 µM [2]: 1.59
Structure (SMILES): Cc1cc(OCCCS(C)(=O)=O)ccc1-c1cccc(CNc2ccc(OCC(=O)O)c(F)c2)c1

- EC50 [1]: 36.5 nM
- logD at 100 µM [2]: 2.36
Structure (SMILES): O=C(O)COc1ccc(NCc2cccc(-c3ccccc3F)c2)cc1F

- EC50 [1]: 225 nM
Structure (SMILES): Cc1noc(C)c1-c1cccc(CNc2ccc(OCC(=O)O)c(F)c2)c1

- EC50 [1]: 11.6 nM
- logD at 100 µM [2]: 2.83
Structure (SMILES): CCOc1ccc(-c2cccc(CNc3ccc(OCC(=O)O)c(F)c3)c2)c(C)c1
- Activity (Hepatocyte [3]): Toxic
- Activity (Mus musculus [7]): Active
- Activity_index (Hepatocyte [4]): 19.3%

- EC50 [1]: 19.3 nM
- logD at 100 µM [2]: 2.71
Structure (SMILES): O=C(O)COc1ccc(NCc2cccc(-c3ccccc3Cl)c2)cc1F
- Activity (Mus musculus [7]): Active

- EC50 [1]: 536 nM
Structure (SMILES): COc1ccccc1-c1cccc(CNc2ccc(OCC(=O)O)c(F)c2)c1

- EC50 [1]: 69.6 nM
- logD at 100 µM [2]: 1.85
Structure (SMILES): Cc1cc(O)ccc1-c1cccc(CNc2ccc(OCC(=O)O)c(F)c2)c1

- EC50 [1]: > 1000 nM
Structure (SMILES): CCOc1cc(C)c(-c2cccc(COc3ccc(NCC(=O)O)c(F)c3)c2)c(C)c1

- half-life [8]: 4.32 h
- CL [10]: 0.4177 mL/min/kg
- AUC [11]: 1064.23 µg·h/mL
- Cmax [12]: 87.4 µg/mL
Structure (SMILES): Cc1cc(OCCCS(C)(=O)=O)cc(C)c1-c1cccc(COc2ccc3c(c2)OC[C@H]3CC(=O)O)c1
- Activity (Hepatocyte [3]): Toxic
- Activity (Mus musculus [13]): Active
- Activity (Mus musculus [14]): inactive
- Activity (Mus musculus [7]): Active
- Activity (Mus musculus [15]): inactive

- EC50 [1]: 41.3 nM
- logD at 100 µM [2]: 3.37
Structure (SMILES): CCCOc1ccc(-c2cccc(CNc3ccc(OCC(=O)O)c(F)c3)c2)c(C)c1
